Experimental data taken from patent US20250230193A1, “CYCLIC COMPOUND HAVING SELECTIVE KRAS INHIBITORY EFFECT ON HRAS AND NRAS” (CHUGAI SEIYAKU KABUSHIKI KAISHA, priority 2022, published 2025).

Key:
[1] = target: GDP-bound NRAS wild-type protein (Homo sapiens, UniProt P01111); assay: Binding to NRAS by surface plasmon resonance (SPR), Single Cycle Kinetics; conditions: SPR; for NRAS/KRAS (ratio of KD value with respect to NRAS to KD value with respect to KRAS) / NRAS/KRAS (ratio of KD value for NRAS to KD value for KRAS): GDP-bound NRAS wild-type vs GDP-bound KRAS wild-type
[2] = target: GDP-bound HRAS wild-type protein (Homo sapiens, UniProt P01112); assay: Binding to HRAS by surface plasmon resonance (SPR), Single Cycle Kinetics; conditions: SPR; for HRAS/KRAS (ratio of KD value with respect to HRAS to KD value with respect to KRAS) / HRAS/KRAS (ratio of KD value for HRAS to KD value for KRAS): GDP-bound HRAS wild-type vs GDP-bound KRAS wild-type
[3] = system: human lung cancer strain NCI-H441

Sequence of GDP-bound NRAS wild-type protein (P01111 whole entry): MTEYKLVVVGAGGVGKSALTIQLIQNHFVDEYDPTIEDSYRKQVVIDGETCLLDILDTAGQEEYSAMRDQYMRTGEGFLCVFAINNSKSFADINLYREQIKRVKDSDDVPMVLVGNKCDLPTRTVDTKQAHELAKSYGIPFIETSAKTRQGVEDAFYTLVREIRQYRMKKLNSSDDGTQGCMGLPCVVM
Sequence of GDP-bound HRAS wild-type protein (P01112 whole entry): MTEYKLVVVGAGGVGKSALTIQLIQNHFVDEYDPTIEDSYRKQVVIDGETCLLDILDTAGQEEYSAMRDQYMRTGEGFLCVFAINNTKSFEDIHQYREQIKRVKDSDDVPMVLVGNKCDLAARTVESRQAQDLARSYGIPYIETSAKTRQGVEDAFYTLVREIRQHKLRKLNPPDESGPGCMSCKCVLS

SMILES: CC[C@H](C)[C@@H]1NC(=O)[C@H](CC(C)C)N(C)C(=O)C[C@@H](C)N(C)C(=O)[C@H](C2CCCC2)N(C)C(=O)C2(CCC2)NC(=O)[C@@H]2CCCN2C(=O)[C@H](CCc2cc(F)c(C(F)(F)F)c(F)c2)NC(=O)CN(C)C(=O)[C@H](Cc2ccc(C(F)(F)F)cc2)N2CC/C=C\C[C@@H](C2=O)N(C)C(=O)CN(C)C1=O [PP1099]
- NRAS/KRAS (ratio of KD value with respect to NRAS to KD value with respect to KRAS) ([1]; KD ratio): B (a compound having 3 or more and less than 10 is denoted as B)
- HRAS/KRAS (ratio of KD value with respect to HRAS to KD value with respect to KRAS) ([2]; KD ratio): A (a compound having 10 or more and less than 20 is denoted as A)
- IC50 [3]: 68.1 nM

SMILES: CC[C@H](C)[C@@H]1NC(=O)[C@H](CC2CCCC2)N(C)C(=O)C[C@@H](C(=O)N(C)C)N(C)C(=O)[C@H](C2CCCC2)N(C)C(=O)C2(CCC2)NC(=O)[C@@H]2[C@@H](OCC(F)F)CCN2C(=O)[C@H](CCc2cc(F)c(C(F)(F)F)c(F)c2)NC(=O)CN(C)C(=O)[C@H](Cc2ccc(C)cc2)N2CC/C=C\C[C@H](C2=O)N(C)C(=O)CN(C)C1=O [PP1536]
- NRAS/KRAS (ratio of KD value for GDP-bound NRAS wild-type protein to KD value for KRAS) ([1]; KD ratio class): A (a compound having 10 or more and less than 20 is denoted as A)
- HRAS/KRAS (ratio of KD value for GDP-bound HRAS wild-type protein to KD value for KRAS) ([2]; KD ratio class): B (a compound having 3 or more and less than 10 is denoted as B)
- IC50 [3]: 24.8 nM

SMILES: CC[C@H](C)[C@@H]1NC(=O)[C@H](CC2CC2)N(C)C(=O)C[C@@H](C(=O)N(C)C)N(C)C(=O)[C@H](C2CCCC2)N(C)C(=O)C2(CC(C)(C)C2)NC(=O)[C@@H]2C[C@H](C)CN2C(=O)[C@H](CCc2cc(F)c(C(F)(F)F)c(F)c2)NC(=O)CN(C)C(=O)[C@H](Cc2ccc(C(F)(F)F)cc2)N2CC/C=C\C[C@@H](C2=O)N(C)C(=O)CN(C)C1=O [PP1660]
- NRAS/KRAS (ratio of KD value for NRAS to KD value for KRAS) ([1]; KD ratio): A (a compound having 10 or more and less than 20 is denoted as A)
- HRAS/KRAS (ratio of KD value for HRAS to KD value for KRAS) ([2]; KD ratio): A (a compound having 10 or more and less than 20 is denoted as A)
- IC50 [3]: 4.3 nM

SMILES: CCC[C@H]1C(=O)N[C@@H]([C@@H](C)CC)C(=O)N(C)CC(=O)N(C)[C@H]2C/C=C\CCN(C2=O)[C@@H](Cc2ccc(C(F)(F)F)cc2)C(=O)N(C)CC(=O)N[C@@H](CCc2ccc(C(F)(F)F)c(OC)c2)C(=O)N2C[C@H](OCC)C[C@H]2C(=O)NC2(CC(C)(C)C2)C(=O)N(C)[C@@H](C2CCCC2)C(=O)N(C)[C@H](C(=O)N(C)CC)CC(=O)N1C [PP1676]
- NRAS/KRAS (ratio of KD value for NRAS to KD value for KRAS) ([1]; KD ratio): A (a compound having 10 or more and less than 20 is denoted as A)
- HRAS/KRAS (ratio of KD value for HRAS to KD value for KRAS) ([2]; KD ratio): A (a compound having 10 or more and less than 20 is denoted as A)
- IC50 [3]: 5 nM

SMILES: C#CC[C@H]1C(=O)N[C@@H]([C@@H](C)CC)C(=O)N(C)CC(=O)N(C)[C@H]2C/C=C\CCN(C2=O)[C@@H](Cc2ccc(C(F)(F)F)cc2)C(=O)N(C)CC(=O)N[C@@H](CCc2ccc(C(F)(F)F)c(OC)c2)C(=O)N2C[C@H](OCC)C[C@H]2C(=O)NC2(CC(C)(C)C2)C(=O)N(C)[C@@H](C2CCCC2)C(=O)N(C)[C@H](C(=O)N(C)C)CC(=O)N1C [PP1677]
- NRAS/KRAS (ratio of KD value for NRAS to KD value for KRAS) ([1]; KD ratio): A (a compound having 10 or more and less than 20 is denoted as A)
- HRAS/KRAS (ratio of KD value for HRAS to KD value for KRAS) ([2]; KD ratio): A (a compound having 10 or more and less than 20 is denoted as A)
- IC50 [3]: 3.4 nM

SMILES: CCO[C@@H]1C[C@H]2C(=O)NC3(CC(C)(C)C3)C(=O)N(C)[C@@H](C3CCCC3)C(=O)N(C)[C@H](C(=O)N(C)CC)CC(=O)N(C)[C@@H](CC3CC3)C(=O)N[C@@H]([C@@H](C)CC)C(=O)N(C)CC(=O)N(C)[C@H]3C/C=C\CCN(C3=O)[C@@H](Cc3ccc(C(F)(F)F)cc3)C(=O)N(C)CC(=O)N[C@@H](CCc3ccc(C(F)(F)F)c(OC)c3)C(=O)N2C1 [PP1678]
- NRAS/KRAS (ratio of KD value for NRAS to KD value for KRAS) ([1]; KD ratio): A (a compound having 10 or more and less than 20 is denoted as A)
- HRAS/KRAS (ratio of KD value for HRAS to KD value for KRAS) ([2]; KD ratio): B (a compound having 3 or more and less than 10 is denoted as B)
- IC50 [3]: 5.6 nM

SMILES: CCCN(C)C(=O)[C@@H]1CC(=O)N(C)[C@@H](COC)C(=O)N[C@@H]([C@@H](C)CC)C(=O)N(C)CC(=O)N(C)[C@H]2C/C=C\CCN(C2=O)[C@@H](Cc2ccc(C(F)(F)F)cc2)C(=O)N(C)CC(=O)N[C@@H](CCc2cc(F)c(C(F)(F)F)c(F)c2)C(=O)N2C[C@H](OCC)C[C@H]2C(=O)NC2(CCC2)C(=O)N(C)[C@@H](C2CCCC2)C(=O)N1C [PP1706]
- NRAS/KRAS (ratio of KD value for NRAS to KD value for KRAS) ([1]; KD ratio): A (a compound having 10 or more and less than 20 is denoted as A)
- HRAS/KRAS (ratio of KD value for HRAS to KD value for KRAS) ([2]; KD ratio): A (a compound having 10 or more and less than 20 is denoted as A)
- IC50 [3]: 6.7 nM

SMILES: CC[C@H](C)[C@@H]1NC(=O)[C@H](C2CC2)N(C)C(=O)C[C@@H](C(=O)N(C)C)N(C)C(=O)[C@H](C2CCCC2)N(C)C(=O)C2(CCCC2)N(C)C(=O)[C@@H]2CCCN2C(=O)[C@H](CCc2cc(F)c(C(F)(F)F)c(F)c2)NC(=O)CN(C)C(=O)[C@H](Cc2ccc(C)cc2)N2CC/C=C\C[C@@H](C2=O)N(C)C(=O)CN(C)C1=O [PP1809]
- NRAS/KRAS (ratio of KD value for NRAS to KD value for KRAS) ([1]; KD ratio): A (a compound having 10 or more and less than 20 is denoted as A)
- HRAS/KRAS (ratio of KD value for HRAS to KD value for KRAS) ([2]; KD ratio): B (a compound having 3 or more and less than 10 is denoted as B)
- IC50 [3]: 22.4 nM

SMILES: CC[C@H](C)[C@@H]1NC(=O)[C@H](CC)N(C)C(=O)C[C@@H](C(=O)N(C)CC)N(C)C(=O)[C@H](C2CCCC2)N(C)C(=O)C2(CC(C)(C)C2)NC(=O)[C@@H]2C[C@H](C)CN2C(=O)[C@H](CCc2ccc(C(F)(F)F)c(OC)c2)NC(=O)CN(C)C(=O)[C@H](Cc2ccc(C)cc2)N2CC/C=C\C[C@@H](C2=O)N(C)C(=O)CN(C)C1=O [PP1868]
- NRAS/KRAS (ratio of KD value for NRAS to KD value for KRAS) ([1]; KD ratio): A (a compound having 10 or more and less than 20 is denoted as A)
- HRAS/KRAS (ratio of KD value for HRAS to KD value for KRAS) ([2]; KD ratio): B (a compound having 3 or more and less than 10 is denoted as B)
- IC50 [3]: 10.7 nM

SMILES: CCO[C@@H]1C[C@H]2C(=O)NC3(CC(C)(C)C3)C(=O)N(C)[C@@H](C3CCCC3)C(=O)N(C)[C@H](C(=O)N(C)C)CC(=O)N(C)[C@@H](CC)C(=O)N[C@@H]([C@@H](C)CC)C(=O)N(C)CC(=O)N(C)[C@H]3C/C=C\CCN(C3=O)[C@@H](Cc3ccc(C)cc3)C(=O)N(C)CC(=O)N[C@@H](CCc3ccc(C(F)(F)F)c(Cl)c3)C(=O)N2C1 [PP1878]
- NRAS/KRAS (ratio of KD value for NRAS to KD value for KRAS) ([1]; KD ratio): A (a compound having 10 or more and less than 20 is denoted as A)
- HRAS/KRAS (ratio of KD value for HRAS to KD value for KRAS) ([2]; KD ratio): A (a compound having 10 or more and less than 20 is denoted as A)
- IC50 [3]: 8.8 nM

SMILES: CC[C@H](C)[C@@H]1NC(=O)[C@H](CC(C)C)N(C)C(=O)C[C@@H](C(=O)N(C)C)N(C)C(=O)[C@H](C2CCCC2)N(C)C(=O)C2(CC(C)(C)C2)NC(=O)[C@@H]2C[C@H](C)CN2C(=O)[C@H](CCc2ccc(C(F)(F)F)c(OC)c2)NC(=O)CN(C)C(=O)[C@H](Cc2ccc(C)cc2)N2CC/C=C\C[C@@H](C2=O)N(C)C(=O)CN(C)C1=O [PP1905]
- NRAS/KRAS (ratio of KD value for NRAS to KD value for KRAS) ([1]; KD ratio): A (a compound having 10 or more and less than 20 is denoted as A)
- HRAS/KRAS (ratio of KD value for HRAS to KD value for KRAS) ([2]; KD ratio): A (a compound having 10 or more and less than 20 is denoted as A)
- IC50 [3]: 6.7 nM

SMILES: CC[C@H](C)[C@@H]1NC(=O)[C@H](CC(C)C)N(C)C(=O)C[C@@H](C(=O)N(C)C)N(C)C(=O)[C@H](C2CCCC2)N(C)C(=O)C2(CC(C)(C)C2)NC(=O)[C@@H]2C[C@@H](C)CN2C(=O)[C@H](CCc2ccc(C(F)(F)F)c(OC)c2)NC(=O)CN(C)C(=O)[C@H](Cc2ccc(C)cc2)N2CC/C=C\C[C@@H](C2=O)N(C)C(=O)CN(C)C1=O [PP1908]
- NRAS/KRAS (ratio of KD value for NRAS to KD value for KRAS) ([1]; KD ratio): A (a compound having 10 or more and less than 20 is denoted as A)
- HRAS/KRAS (ratio of KD value for HRAS to KD value for KRAS) ([2]; KD ratio): B (a compound having 3 or more and less than 10 is denoted as B)
- IC50 [3]: 10.1 nM

SMILES: CC[C@H](C)[C@@H]1NC(=O)[C@H](CC(C)C)N(C)C(=O)C[C@@H](C(=O)N(C)CC)N(C)C(=O)[C@H](C2CCCC2)N(C)C(=O)C2(CC(C)(C)C2)NC(=O)[C@@H]2C[C@@H](C)CN2C(=O)[C@H](CCc2ccc(C(F)(F)F)c(OC)c2)NC(=O)CN(C)C(=O)[C@H](Cc2ccc(C)cc2)N2CC/C=C\C[C@@H](C2=O)N(C)C(=O)CN(C)C1=O [PP1909]
- NRAS/KRAS (ratio of KD value for NRAS to KD value for KRAS) ([1]; KD ratio): A (a compound having 10 or more and less than 20 is denoted as A)
- HRAS/KRAS (ratio of KD value for HRAS to KD value for KRAS) ([2]; KD ratio): B (a compound having 3 or more and less than 10 is denoted as B)
- IC50 [3]: 15.3 nM

SMILES: CCO[C@@H]1C[C@H]2C(=O)NC3(CCC3)C(=O)N(C)[C@@H](C3CCCC3)C(=O)N(C)[C@H](C(=O)N(C)CC)CC(=O)N(C)[C@H]3CCCCCc4ccc(cc4)C[C@@H](C(=O)N(C)CC(=O)N[C@@H](CCc4cc(F)c(C(F)(F)F)c(F)c4)C(=O)N2C1)N1CC/C=C\C[C@@H](C1=O)N(C)C(=O)CN(C)C(=O)[C@H]([C@@H](C)CC)NC3=O [PP2117]
- NRAS/KRAS (ratio of KD value with respect to NRAS to KD value with respect to KRAS) [1]: A (a compound having 10 or more and less than 20 is denoted as A)
- HRAS/KRAS (ratio of KD value with respect to HRAS to KD value with respect to KRAS) [2]: A (a compound having 10 or more and less than 20 is denoted as A)
- IC50 [3]: 28.9 nM
